Assay results published in patent US6737383B1, “Herbicidal oxadiazolidines” (priority 1999, dated 2004).

Key:
wild poinsettia = assay: Test C postemergence wild poinsettia; type: in vivo, Euphorbia heterophylla; details: 0 to 100 scale, 0 no effect, 100 complete control
Experimental: (§1) Compounds evaluated in this test were formulated in a non-phytotoxic solvent mixture which included a surfactant and applied to plants that were grown for various periods of time before treatment (postemergence application). A mixture of sandy loam soil and greenhouse potting mix in a 60:40 ratio was used for the postemergence test.
(§2) Plantings of these crops and weed species were adjusted to produce plants of appropriate size for the postemergence test. All plant species were grown using normal greenhouse practices. Crop and weed species include arrowleaf sida (Sida rhombifolia), barnyardgrass (Echinochloa crus-galli), cocklebur (Xanthium strumarium), common ragweed (Ambrosia elatior), corn (Zea mays), cotton (Gossypium hirsutum), eastern black nightshade (Solanum ptycanthum), fall panicum (Panicum dichotomiflorum), field bindweed (Convolvulus arvensis), giant foxtail (Setaria faberii), hairy beggarticks (Bidens pilosa), ivyleaf morningglory (Ipomoea hederacea), johnsongrass (Sorghum halepense), ladysthumb smartweed (Polygonum persicaria), lambsquarters (Chenopodium album), large crabgrass (Digitaria sanguinalis), purple nutsedge (Cyperus rotundus), redroot pigweed (Amaranthus retroflexus), soybean (Glycine max), surinam grass (Brachiaria decumbens), velvetleaf (Abutilon theophrasti) and wild poinsettia (Euphorbia heterophylla).
(§3) Treated plants and untreated controls were maintained in a greenhouse for approximately 14, to 21 days, after which all treated plants were compared to untreated controls and visually evaluated. Plant response ratings, summarized in Table C, were based upon a 0 to 100 scale where 0 was no effect and 100 was complete control. A dash response (−) means no test result.

corn = assay: Test C postemergence corn; type: in vivo, Zea mays; details: 0 to 100 scale, 0 no effect, 100 complete control
Experimental: as §1, §2, §3

johnsongrass = assay: Test C postemergence johnsongrass; type: in vivo, Sorghum halepense; details: 0 to 100 scale, 0 no effect, 100 complete control
In short: (§4)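 Postemergence spray; formulation = non-phytotoxic solvent + surfactant; soil 60:40 sandy loam:greenhouse potting mix; greenhouse, ~14–21 d; visual rating vs untreated, 0–100 (100 = complete control).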

field bindweed = assay: Test C postemergence field bindweed; type: in vivo, Convolvulus arvensis; details: 0 to 100 scale, 0 no effect, 100 complete control
In short: as §4

arrowleaf sida = assay: Test C postemergence arrowleaf sida; type: in vivo, Sida rhombifolia; details: 0 to 100 scale, 0 no effect, 100 complete control
Experimental: as §1, §2, §3

purple nutsedge = assay: Test C postemergence purple nutsedge; type: in vivo, Cyperus rotundus; details: 0 to 100 scale, 0 no effect, 100 complete control
In short: as §4

hairy beggarticks = assay: Test C postemergence hairy beggarticks; type: in vivo, Bidens pilosa; details: 0 to 100 scale, 0 no effect, 100 complete control
In short: as §4

barnyardgrass = assay: Test C postemergence barnyardgrass; type: in vivo, Echinochloa crus-galli; details: 0 to 100 scale, 0 no effect, 100 complete control
In short: as §4

surinam grass [1] = assay: Test C postemergence surinam grass; type: in vivo, Brachiaria decumbens; details: 0 to 100 scale, 0 no effect, 100 complete control
Experimental: as §1, §2, §3

large crabgrass [2] = assay: Test C postemergence large crabgrass; type: in vivo, Digitaria sanguinalis; details: 0 to 100 scale, 0 no effect, 100 complete control
Experimental: as §1, §2, §3

morningglory = assay: Test A morningglory; type: in vivo, Ipomoea spp.; details: 0 to 10 scale where 0 is no effect and 10 is complete control
In short: (§5)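 Visual injury score, 0 (no effect) to 10 (complete control), vs untreated controls at ~11 d in greenhouse. Pre: soil drench on sandy loam. Post: spray to runoff, 1–2 leaf stage.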

velvetleaf = assay: Test A velvetleaf; type: in vivo, Abutilon theophrasti; details: 0 to 10 scale where 0 is no effect and 10 is complete control
In short: as §5

sandbur = assay: Test D sandbur; type: in vivo, Cenchrus echinatus; details: Rate 64 g/ha, Postemergence; 0 to 100 scale, 0 no injury, 100 complete control
Alexandergrass = assay: Test D Alexandergrass; type: in vivo, Brachiaria plantaginea; details: Rate 64 g/ha, Postemergence; 0 to 100 scale, 0 no injury, 100 complete control
large crabgrass [3] = assay: Test D large crabgrass; type: in vivo, Digitaria sanguinalis; details: Rate 64 g/ha, Postemergence; 0 to 100 scale, 0 no injury, 100 complete control
surinam grass [4] = assay: Test D surinam grass; type: in vivo, Brachiaria decumbens; details: Rate 64 g/ha, Postemergence; 0 to 100 scale, 0 no injury, 100 complete control
goosegrass = assay: Test D goosegrass; type: in vivo, Eleusine indica; details: Rate 64 g/ha, Postemergence; 0 to 100 scale, 0 no injury, 100 complete control
common pursiane = assay: Test D common purslane; type: in vivo, Portulaca oleracea; details: Rate 64 g/ha, Postemergence; 0 to 100 scale, 0 no injury, 100 complete control
Johnson grass = assay: Test D Johnson grass; type: in vivo, Sorghum halepense; details: Rate 64 g/ha, Postemergence; 0 to 100 scale, 0 no injury, 100 complete control

C=CCn1c(=O)on(C(=O)N(c2ccccc2)C(C)C)c1=O [Compound 93]
Plant response rating Wild poinsettia (wild poinsettia; Rate 140 g/ha): 0 | Plant response rating Wild poinsettia (wild poinsettia; Rate 280 g/ha): 0 | Plant response rating Wild poinsettia (wild poinsettia; Rate 560 g/ha): 30 | Plant response rating Wild poinsettia (wild poinsettia; Rate 1120 g/ha): 70 | Plant response rating, Corn (corn; Rate 140 g/ha): 0 | Plant response rating, Corn (corn; Rate 280 g/ha): 0 | Plant response rating, Corn (corn; Rate 560 g/ha): 0 | Plant response rating, Corn (corn; Rate 1120 g/ha): 45 | Plant response rating, Johnsongrass (johnsongrass; Rate 140 g/ha): 0 | Plant response rating, Johnsongrass (johnsongrass; Rate 280 g/ha): 5 | Plant response rating, Johnsongrass (johnsongrass; Rate 560 g/ha): 85 | Plant response rating, Johnsongrass (johnsongrass; Rate 1120 g/ha): 90 | Plant response rating Field bindweed (field bindweed; Rate 140 g/ha): 0 | Plant response rating Field bindweed (field bindweed; Rate 280 g/ha): 0 | Plant response rating Field bindweed (field bindweed; Rate 560 g/ha): 0 | Plant response rating Field bindweed (field bindweed; Rate 1120 g/ha): 50 | Plant response rating Arrowleaf sida (arrowleaf sida; Rate 280 g/ha): 10 | Plant response rating Arrowleaf sida (arrowleaf sida; Rate 560 g/ha): 60 | Plant response rating Arrowleaf sida (arrowleaf sida; Rate 1120 g/ha): 60 | Plant response rating, Purple nutsedge (purple nutsedge; Rate 140 g/ha): 0 | Plant response rating, Purple nutsedge (purple nutsedge; Rate 280 g/ha): 0 | Plant response rating, Purple nutsedge (purple nutsedge; Rate 560 g/ha): 0 | Plant response rating, Purple nutsedge (purple nutsedge; Rate 1120 g/ha): 10 | Plant response rating H. beggarticks (hairy beggarticks; Rate 280 g/ha): 0 | Plant response rating H. beggarticks (hairy beggarticks; Rate 560 g/ha): 5 | Plant response rating H. beggarticks (hairy beggarticks; Rate 1120 g/ha): 70 | Plant response rating, Barnyardgrass (barnyardgrass; Rate 140 g/ha): 70 | Plant response rating, Barnyardgrass (barnyardgrass; Rate 280 g/ha): 90 | Plant response rating, Barnyardgrass (barnyardgrass; Rate 560 g/ha): 90 | Plant response rating, Barnyardgrass (barnyardgrass; Rate 1120 g/ha): 95 | Plant response rating, Surinam grass (surinam grass [1]; Rate 140 g/ha): 0 | Plant response rating, Surinam grass (surinam grass [1]; Rate 280 g/ha): 45 | Plant response rating, Surinam grass (surinam grass [1]; Rate 560 g/ha): 50 | Plant response rating, Surinam grass (surinam grass [1]; Rate 1120 g/ha): 85 | Plant response rating, Large crabgrass (large crabgrass [2]; Rate 140 g/ha): 0 | Plant response rating, Large crabgrass (large crabgrass [2]; Rate 280 g/ha): 30 | Plant response rating, Large crabgrass (large crabgrass [2]; Rate 560 g/ha): 50 | Plant response rating, Large crabgrass (large crabgrass [2]; Rate 1120 g/ha): 95

CC(C)N(C(=O)n1oc(=O)n(C2CCCCC2C(F)(F)F)c1=O)c1ccc(F)cc1 (stereo not shown) [Compound 99]
Plant response rating, Morningglory (morningglory; Postemergence, Rate 1000 g/ha): 2 | Plant response rating, Morningglory (morningglory; Pre-emergence, Rate 2000 g/ha): 2 | Plant response rating, Velvetleaf (velvetleaf; Postemergence, Rate 1000 g/ha): 2 | Plant response rating, Velvetleaf (velvetleaf; Pre-emergence, Rate 2000 g/ha): 3

CC(C)N(C(=O)n1oc(=O)n(Cc2cccs2)c1=O)c1ccccc1 [Compound 103]
Plant response rating Wild poinsettia (wild poinsettia; Rate 140 g/ha): 0 | Plant response rating Wild poinsettia (wild poinsettia; Rate 280 g/ha): 0 | Plant response rating Wild poinsettia (wild poinsettia; Rate 560 g/ha): 10 | Plant response rating Wild poinsettia (wild poinsettia; Rate 1120 g/ha): 60 | Plant response rating, Corn (corn; Rate 140 g/ha): 0 | Plant response rating, Corn (corn; Rate 280 g/ha): 0 | Plant response rating, Corn (corn; Rate 560 g/ha): 0 | Plant response rating, Corn (corn; Rate 1120 g/ha): 0 | Plant response rating, Johnsongrass (johnsongrass; Rate 140 g/ha): 0 | Plant response rating, Johnsongrass (johnsongrass; Rate 280 g/ha): 0 | Plant response rating, Johnsongrass (johnsongrass; Rate 560 g/ha): 0 | Plant response rating, Johnsongrass (johnsongrass; Rate 1120 g/ha): 0 | Plant response rating Field bindweed (field bindweed; Rate 140 g/ha): 0 | Plant response rating Field bindweed (field bindweed; Rate 280 g/ha): 0 | Plant response rating Field bindweed (field bindweed; Rate 560 g/ha): 0 | Plant response rating Field bindweed (field bindweed; Rate 1120 g/ha): 0 | Plant response rating Arrowleaf sida (arrowleaf sida; Rate 140 g/ha): 0 | Plant response rating Arrowleaf sida (arrowleaf sida; Rate 280 g/ha): 0 | Plant response rating Arrowleaf sida (arrowleaf sida; Rate 560 g/ha): 0 | Plant response rating, Purple nutsedge (purple nutsedge; Rate 140 g/ha): 0 | Plant response rating, Purple nutsedge (purple nutsedge; Rate 280 g/ha): 0 | Plant response rating, Purple nutsedge (purple nutsedge; Rate 560 g/ha): 0 | Plant response rating, Purple nutsedge (purple nutsedge; Rate 1120 g/ha): 0 | Plant response rating H. beggarticks (hairy beggarticks; Rate 140 g/ha): 0 | Plant response rating H. beggarticks (hairy beggarticks; Rate 280 g/ha): 0 | Plant response rating H. beggarticks (hairy beggarticks; Rate 560 g/ha): 0 | Plant response rating H. beggarticks (hairy beggarticks; Rate 1120 g/ha): 5 | Plant response rating, Barnyardgrass (barnyardgrass; Rate 140 g/ha): 0 | Plant response rating, Barnyardgrass (barnyardgrass; Rate 280 g/ha): 0 | Plant response rating, Barnyardgrass (barnyardgrass; Rate 560 g/ha): 10 | Plant response rating, Barnyardgrass (barnyardgrass; Rate 1120 g/ha): 80 | Plant response rating, Surinam grass (surinam grass [1]; Rate 140 g/ha): 0 | Plant response rating, Surinam grass (surinam grass [1]; Rate 280 g/ha): 0 | Plant response rating, Surinam grass (surinam grass [1]; Rate 560 g/ha): 0 | Plant response rating, Surinam grass (surinam grass [1]; Rate 1120 g/ha): 5 | Plant response rating, Large crabgrass (large crabgrass [2]; Rate 140 g/ha): 0 | Plant response rating, Large crabgrass (large crabgrass [2]; Rate 280 g/ha): 0 | Plant response rating, Large crabgrass (large crabgrass [2]; Rate 560 g/ha): 0 | Plant response rating, Large crabgrass (large crabgrass [2]; Rate 1120 g/ha): 10

CC(C)Cn1c(=O)on(C(=O)N(c2ccc(F)cc2)C(C)C)c1=O [Compound 169]
Sandbur plant response rating (sandbur): 40 | Plant response rating, Alexandergrass (Alexandergrass): 65 | Plant response rating, Large crabgrass (large crabgrass [3]): 100 | Surinam grass plant response rating (surinam grass [4]): 65 | Plant response rating, Goosegrass (goosegrass): 100 | Plant response rating, C. purslane (common pursiane): 0 | Plant response rating, Johnsongrass (Johnson grass): 0
